In test [1] the test system is Hepatitis C virus. Briefly: Antiviral activity against Hepatitis C virus infected in Huh-7 cells assessed as inhibition of HCV replicon at 10 uM by replicon assay. Type of test: functional, Hepacivirus hominis. A general note: A replicon is a self-replicating genome or part of one, used to study replication in cells.
Test [2] is described as follows: Binding affinity to Hepatitis C virus genotype 1b IRES RNA subdomain 2a assessed as conformational change by cyanine dye-based FRET assay. Set-up: species or system Hepatitis C virus subtype 1b.
The subject of test [3] is Internal ribosome entry site (IRES). As to the kind of experiment: Inhibition of Hepatitis C virus IRES RNA-driven translation. The note with it: Hepacivirus hominis.
The test system of test [4] is Hepatitis C virus. As to the kind of experiment: Antiviral activity against Hepatitis C virus infected in Huh-7 cells assessed as inhibition of HCV replicon by replicon assay. Type of test: functional, organism-based, Hepacivirus hominis.
Test [5] relates to Internal ribosome entry site (IRES). As to the kind of experiment: Binding affinity to Hepatitis C virus IRES RNA subdomain 2a by mass spectrometry assay. Set-up: species or system Hepacivirus hominis.

By inhibition is commonly meant the drop in the measured response relative to a control, in per cent. The EC50 is the concentration that produces a half-maximal response. Consider `CC(=O)c1ccc(C(=O)N[C@@H](CCCCN)C(=O)N2C[C@H](N)C[C@H](N)C2)cc1`, for which, in the test on Hepatitis C virus [1], the inhibition at 10 µM is 75%. Moreover, the concentration for a half-maximal effect (EC50) in test [2] turned out to be 6.3 µM.
Usually IC50 stands for the point on the concentration scale where inhibition reaches its midpoint. Higher therefore signals weaker potency. `Cc1cc2nc3ccc(N(C)C)cc3nc2cc1N` gave a half-maximal inhibitory concentration (IC50) in test [3] of 0.08 µM.
On to `CN(C)CC1COc2ccc3nc4n(c3c2C1)CC(CN(C)C)CN4` (stereo unspecified), for which the figures for the concentration giving a half-maximal response (EC50) (in the test with Hepatitis C virus [4]; in test [2]) were 4 µM and 0.6 µM, respectively.
One may read the Kd as a measure of binding affinity in units of concentration. A low value points to higher affinity. As for `CN(C)CCCn1c(N)nc2ccc3c(c21)CC(CN(C)C)CO3` (stereo unspecified), the half-maximal effective concentration (EC50) came to 2.8 µM in the test with Hepatitis C virus [4] and 3.4 µM in test [2]. In test [5], this compound returned a Kd of 0.86 µM.
On to `CN(C)CCCn1c(N)nc2ccccc21`, for which the Kd in test [5] was 100 µM. Moreover, in test [2], the EC50 stood at 50 µM.
For the compound `Cc1cc(C)nc(/N=C(\N)NCCc2ccccc2)n1`, half-maximal inhibition in test [3] (IC50) was put at 9.6 µM.
